Measurements taken from article PMC7734281, “Functionalized Oxoindolin Hydrazine Carbothioamide Derivatives as Highly Potent Inhibitors of Nucleoside Triphosphate Diphosphohydrolases” (Frontiers in Pharmacology, 2020).

Columns and labels:
Assay type in all cases: biochemical
m-NTPDase2 = molecular target: T1, m-NTPDase2 (Mus musculus, UniProt O55026); test: m-NTPDase2 inhibition, malachite green assay; settings: for inhibition at 100 µM: compound 100 µM; for IC50: mean ± SEM of three independent experiments
T1 construct: made in house; host or cells: COS-7 cells, transient transfection; crude protein extract after sonication
T1 sequence (O55026 1-495): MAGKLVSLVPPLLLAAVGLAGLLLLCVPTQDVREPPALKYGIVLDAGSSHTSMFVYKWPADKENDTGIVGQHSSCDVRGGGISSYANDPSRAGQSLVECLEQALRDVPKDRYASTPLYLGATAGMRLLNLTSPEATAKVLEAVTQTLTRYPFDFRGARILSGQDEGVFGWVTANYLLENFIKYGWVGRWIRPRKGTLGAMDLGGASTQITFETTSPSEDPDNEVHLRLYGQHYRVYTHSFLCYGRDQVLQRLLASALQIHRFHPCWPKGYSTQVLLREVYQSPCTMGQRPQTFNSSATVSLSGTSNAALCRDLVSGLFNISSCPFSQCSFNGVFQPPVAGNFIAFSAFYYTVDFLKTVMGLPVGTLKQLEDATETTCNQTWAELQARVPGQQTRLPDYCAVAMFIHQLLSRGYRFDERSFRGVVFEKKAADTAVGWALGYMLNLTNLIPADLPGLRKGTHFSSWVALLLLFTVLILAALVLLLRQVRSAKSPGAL
Description: (§1) COS-7 cells were transfected with plasmids expressing human or mouse NTPDases1, -2, -3, and -8 as previously described ([Levesque et al., 2007]; [Lecka et al., 2014]) Briefly, the confluent cells were transferred to Dulbecco’s Modified Eagle’s Medium containing no fetal bovine serum. Then, these cells were incubated with plasmid DNA (6 µg) and Lipofectamine reagent (24 µl) at 37°C. After 5 h, transfection was terminated with the addition of an equal volume of DMEM/F-12 (supplemented with 20% FBS) and cells were collected by harvesting after 40–72 h.
(§2) To prepare protein extracts, transfected COS-7 cells were washed three times with tris-saline buffer while temperature was maintained at 4°C. Then cells were scraped and resuspended in harvesting buffer containing 95 mM NaCl, 45 mM tris and 0.1 mM phenylmethylsulfonyl fluoride (pH 7.5). Cells were again washed twice by centrifugation for 5 min at 300 × g at 4°C and then resuspended in harvesting buffer (supplemented with 10 μg ml aprotinin). Following sonication, cellular debris was isolated by 10 min centrifugation at 300 g at 4°C. Subsequently, supernatant was removed very carefully and protein concentration was determined by using Bradford microplate assay while using the bovine serum albumin as a standard ([Bradford, 1976]).
(§3) The inhibitory effects of synthesized compounds on h-NTPDase1, -2, -3, and -8 were determined as described previously, although with slight modifications ([Martín-Satué et al., 2009]). Assay was conducted in a reaction medium containing 50 mM tris-HCl and 5 mM CaCl2 (pH 7.4). All the test compounds were dissolved in dimethyl sulfoxide (DMSO, 10%) and initially screened at a concentration of 100 µM. A reaction mixture containing 55 µl of assay buffer, 10 µl of test compound solution and 10 µl of h-NTPDase1 (58 ng/well) or h-NTPDase2 (79 ng/well) or h-NTPDase3 (163 ng/well) or h-NTPDase8 (66 ng/well) was incubated at 37°C for 10 min. Following the incubation, a 10 µl solution of adenosine triphosphate (ATP, 100 µm) was added as substrate and reaction mixture was again incubated for 15 min at 37°C. The reaction was stopped by adding malachite green reagent (15 µl) and placed at room temperature for 4 to 6 min. Finally, absorbance was measured at 630 nm by using Omega FLUOstar microplate reader (BMG Labtech, Ortenberg, Germany) and % inhibitions were calculated. For compounds showing more than 50% inhibition of any isozyme, dose response curves were generated and their IC50 values were determined. Three separate enzyme inhibition assays were carried out in triplicate and dose-response curve were generated by using PRISM 5.0 (GraphPad, San Diego, United States).
(§4) Same procedure was adopted to determine the inhibitory effects of compounds on mouse NTPDases (m-NTPDases). However, the amount of protein used was as follows: m-NTPDase1 (82 ng/well), m-NTPDase2 (57 ng/well), m-NTPDase3 (110 ng/well) and m-NTPDase8 (79 ng/well)

m-NTPDase3 = molecular target: T2, m-NTPDase3 (Mus musculus, UniProt Q8BFW6); test: m-NTPDase3 inhibition, malachite green assay; settings: for inhibition at 100 µM: compound 100 µM; for IC50: mean ± SEM of three independent experiments
T2 construct: made in house; host or cells: COS-7 cells, transient transfection; crude protein extract after sonication
T2 sequence (Q8BFW6 1-529): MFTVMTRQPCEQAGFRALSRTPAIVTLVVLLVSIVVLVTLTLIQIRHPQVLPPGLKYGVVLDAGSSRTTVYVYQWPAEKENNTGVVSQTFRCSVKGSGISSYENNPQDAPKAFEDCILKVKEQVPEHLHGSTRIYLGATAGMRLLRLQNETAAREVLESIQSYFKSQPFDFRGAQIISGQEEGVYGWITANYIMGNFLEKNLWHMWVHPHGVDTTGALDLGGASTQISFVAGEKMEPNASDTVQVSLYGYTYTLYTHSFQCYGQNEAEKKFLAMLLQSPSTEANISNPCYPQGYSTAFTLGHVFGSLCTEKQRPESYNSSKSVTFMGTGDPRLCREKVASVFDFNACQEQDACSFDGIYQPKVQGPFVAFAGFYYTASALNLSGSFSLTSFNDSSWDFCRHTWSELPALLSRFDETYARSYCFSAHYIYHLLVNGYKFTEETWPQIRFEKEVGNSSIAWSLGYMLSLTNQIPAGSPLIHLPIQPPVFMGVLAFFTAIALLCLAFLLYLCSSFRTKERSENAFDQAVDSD
Description: as §1, §2, §3, §4

h-NTPDase8 = molecular target: T3, h-NTPDase8 (Homo sapiens, UniProt Q5MY95); test: h-NTPDase8 inhibition, malachite green assay; settings: for inhibition at 100 µM: compound 100 µM; for IC50: ATP 100 µM substrate, mean ± SEM of three independent experiments
T3 construct: made in house; host or cells: COS-7 cells, transient transfection; crude protein extract after sonication
T3 sequence (Q5MY95 1-495): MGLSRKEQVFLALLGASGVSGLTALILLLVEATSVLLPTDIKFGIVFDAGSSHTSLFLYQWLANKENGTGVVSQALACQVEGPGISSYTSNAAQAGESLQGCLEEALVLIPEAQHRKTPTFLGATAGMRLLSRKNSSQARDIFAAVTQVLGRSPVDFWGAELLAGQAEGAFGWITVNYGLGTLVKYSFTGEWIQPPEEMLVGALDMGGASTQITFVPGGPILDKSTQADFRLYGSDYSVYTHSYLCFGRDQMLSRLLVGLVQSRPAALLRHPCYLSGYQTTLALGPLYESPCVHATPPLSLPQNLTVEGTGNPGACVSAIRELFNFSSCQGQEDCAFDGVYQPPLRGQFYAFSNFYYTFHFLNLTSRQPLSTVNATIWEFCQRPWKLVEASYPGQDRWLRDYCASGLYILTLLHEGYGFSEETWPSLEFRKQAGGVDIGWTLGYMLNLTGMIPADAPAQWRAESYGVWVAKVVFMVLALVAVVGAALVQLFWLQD
Description: as §1, §2, §3

| SMILES | inhibition at 100 µM (m-NTPDase2) | inhibition at 100 µM (m-NTPDase3) | inhibition at 100 µM (h-NTPDase8) | Ki (m-NTPDase2) | IC50 (m-NTPDase2) | Ki (m-NTPDase3) | IC50 (m-NTPDase3) | Ki (h-NTPDase8) | IC50 (h-NTPDase8) |
| --- | --- | --- | --- | --- | --- | --- | --- | --- | --- |
| COc1ccc(NC(=S)NNC2=c3ccccc3=NC2=O)cc1 [8k, (Z)-N-(4-methoxyphenyl)-2-(2-oxoindolin-3-ylidene)hydrazine-1-carbothioamide] | 29% | 36% | 46% |  |  |  |  |  |  |
| O=C1Nc2ccccc2/C1=N/NC(=S)Nc1c(F)cccc1F [8l, (Z)-N-(2,6-difluorophenyl)-2-(2-oxoindolin-3-ylidene)hydrazine-1-carbothioamide] |  |  | < 50% | 0.05 µM | 0.2 ± 0.01 µM | 0.03 µM | 0.32 ± 0.04 µM |  |  |
| O=C1Nc2ccccc2/C1=N/NC(=S)Nc1ccc(F)cc1 [8d, (Z)-N-(4-fluorophenyl)-2-(2-oxoindolin-3-ylidene)hydrazine-1-carbothioamide] | 27% | 29% | 33% |  |  |  |  |  |  |
| O=C1Nc2ccccc2/C1=N/NC(=S)NCc1ccccc1 [8f, (Z)-N-benzyl-2-(2-oxoindolin-3-ylidene)hydrazine-1-carbothioamide] | 34% | 32% | < 50% |  |  |  |  |  |  |
| O=C1Nc2ccccc2/C1=N/NC(=S)Nc1ccc(Cl)cc1 [8c, (Z)-N-(4-chlorophenyl)-2-(2-oxoindolin-3-ylidene)hydrazine-1-carbothioamide] | 36% |  |  |  |  |  |  | 0.11 µM | 0.24 ± 0.02 µM |
| O=C1Nc2ccccc2/C1=N/NC(=S)Nc1ccc([N+](=O)[O-])cc1 [8b, (Z)-N-(4-nitrophenyl)-2-(2-oxoindolin-3-ylidene)hydrazine-1-carbothioamide] | 31% | 28% |  |  |  |  |  |  |  |
| Cc1ccc(NC(=S)N/N=C2\C(=O)Nc3ccccc32)cc1 [8h, (Z)-2-(2-oxoindolin-3-ylidene)-N-(p-tolyl)hydrazine-1-carbothioamide] | 31% | 31% | 22% |  |  |  |  |  |  |
| CCNC(=S)N/N=C1\C(=O)Nc2ccccc21 [8m, (Z)-N-ethyl-2-(2-oxoindolin-3-ylidene)hydrazine-1-carbothioamide] |  |  | 38% | 0.41 µM | 1.5 ± 0.11 µM | 0.24 µM | 2.41 ± 0.15 µM |  |  |
| COc1cccc(NC(=S)N/N=C2\C(=O)Nc3ccccc32)c1 [8e, (Z)-N-(3-methoxyphenyl)-2-(2-oxoindolin-3-ylidene)hydrazine-1-carbothioamide] | 29% |  |  |  |  | 0.07 µM | 0.7 ± 0.05 µM |  |  |
| Cc1ccc(C(=O)Nc2ccc(S(=O)(=O)O)c3cc(S(=O)(=O)O)cc(S(=O)(=O)O)c23)cc1NC(=O)c1cccc(NC(=O)Nc2cccc(C(=O)Nc3cc(C(=O)Nc4ccc(S(=O)(=O)O)c5cc(S(=O)(=O)O)cc(S(=O)(=O)O)c45)ccc3C)c2)c1 [Suramin, reference compound] |  |  |  | 5.67 µM | 21 ± 2 µM | 3.07 µM | 31 ± 2 µM |  | > 100 µM |
| O=C1Nc2ccccc2/C1=N/NC(=S)Nc1ccccc1 [8a, (Z)-2-(2-oxoindolin-3-ylidene)-N-phenylhydrazine-1-carbothioamide] | 42% | 31% | 24% |  |  |  |  |  |  |
| O=C1Nc2ccccc2/C1=N/NC(=S)Nc1cccc(Cl)c1 [8g, (Z)-N-(3-chlorophenyl)-2-(2-oxoindolin-3-ylidene)hydrazine-1-carbothioamide] | 36% | 27% | 7% |  |  |  |  |  |  |
| Cc1cccc(C)c1NC(=S)N/N=C1\C(=O)Nc2ccccc21 [8i, (Z)-N-(2,6-dimethylphenyl)-2-(2-oxoindolin-3-ylidene)hydrazine-1-carbothioamide] |  | 32% | 17% | 0.04 µM | 0.15 ± 0.01 µM |  |  |  |  |
| COc1ccc(OC)c(NC(=S)N/N=C2\C(=O)Nc3ccccc32)c1 [8j, (Z)-N-(2,5-dimethoxyphenyl)-2-(2-oxoindolin-3-ylidene)hydrazine-1-carbothioamide] | 27% | 30% | 19% |  |  |  |  |  |  |
